Assay results from patent US8680133B2, “Alkyl indole-3-carbinol-derived antitumor agents” (The Ohio State University Research Foundation, priority 2009, dated 2014).

Tests used:
[1] = test system: NCI-H322M; assay: NCI60 screening, Non-Small Cell Lung Cancer, NCI-H322M; type: cell-based, human
[2] = Hematology, serum chemistry, liver weight and food consumption of mice fed the OSU-A9M diet; type: in vivo
Source text: Further supporting a lack of toxicity with the experimental diet is a preservation of body weight (and liver weight) of mice sacrificed at the conclusion of the 6-week treatment period. 1.3±0.1 g (3.9±0.5%) in drug-treated mice vs. 1.5±0.3 g (4.3±0.7%) in controls; liver percent body weight in parentheses following absolute weight, means±SD, n=7, P=0.1 and 0.5 for absolute and relative values. There was no significant difference in the amount of control or experimental diet consumed by the mice [2.4±0.3 g in drug-treated mice vs 2.5±0.1 g in controls (P=0.5)]. Throughout the treatment period, the drug-treated mice consumed 34.1±4.6 mg OSU-A9M per kg body weight per day, calculated as g diet consumed per day/g body weight×450 (overall mean±SD of weekly means).

[3] = test system: U0-31; assay: NCI60 screening, Renal Cancer, U0-31; type: cell-based, human
[4] = test system: RPMl-8226; assay: NCI60 screening, Leukemia, RPMl-8226; type: cell-based, human
[5] = test system: PC-3; assay: NCI60 screening, Prostate Cancer, PC-3; type: cell-based, human
[6] = test system: MDA-MB-435; assay: NCI60 screening, Melanoma, MDA-MB-435; type: cell-based, human
[7] = 450 ppm in diet, 6-week treatment, mean±SD, n=7
[8] = 450 ppm in diet, 18 to 24 weeks of age, mean±SD, n=5
[9] = Homo sapiens, read-out: LC50 (the source's name)

Cc1ccc2c(c1)c(CO)cn2S(=O)(=O)c1ccc(Cl)c([N+](=O)[O-])c1 [OSU-A9M, [1-(4-chloro-3-nitro-benzenesulfonyl)-5-methyl-1H-indol-3-yl]-methanol]
TGI [1]: 3.10E−6 | GI50 ([1]; Homo sapiens): 1.68 µM | LC50 ([1]; Homo sapiens): 5.71 µM | Percent Growth ([1]; Log10 Concentration −4.0): −93% | Percent Growth ([1]; Log10 Concentration −5.0): −96% | Percent Growth ([1]; Log10 Concentration −6.0): 93% | Percent Growth ([1]; Log10 Concentration −7.0): 89% | Percent Growth ([1]; Log10 Concentration −8.0): 91% | Amount of diet consumed ([2]; 450 ppm experimental diet): 2.4 ± 0.3 g | Liver percent body weight [2, 7]: 3.9±0.5% | Liver weight (absolute) [2, 7]: 1.3 ± 0.1 g | ALP [2, 8]: 70.0 ± 14.6 iu/L | ALT [2, 8]: 25.8 ± 8.0 iu/L | AST [2, 8]: 69.6 ± 27.2 iu/L | Albumin [2, 8]: 3.6 ± 0.2 g/dL | BUN [2, 8]: 23.6 ± 2.9 mg/dL | CK [2, 8]: 222.2 ± 144.5 iu/L | Calcium [2, 8]: 10.7 ± 0.2 mg/dL | Cholesterol [2, 8]: 193.4 ± 28.1 mg/dL | Creatinine [2, 8]: 0.1 ± 0.0 mg/dL | Globulin [2, 8]: 2.2 ± 0.1 g/dL | Glucose [2, 8]: 301.8 ± 53.6 mg/dL | Lymphocytes [2, 8]: 9.8 ± 3.1 ×10^3/μl | Nucleated cells [2, 8]: 11.4 ± 3.7 ×10^3/μl | PCV [2, 8]: 44.4 ± 1.1% | Phosphorus [2, 8]: 6.5 ± 0.5 mg/dL | Platelets [2, 8]: 327.2 ± 310.0 ×10^3/μl | Potassium [2, 8]: 6.9 ± 0.4 mEq/L | RBC [2, 8]: 10.3 ± 0.3 ×10^6/μl | Segmented neutrophils [2, 8]: 1.3 ± 0.5 ×10^3/μl | Total Bilirubin [2, 8]: 0.2 ± 0.0 mg/dL | Total Protein [2, 8]: 5.8 ± 0.3 g/dL | Complete cell blood counts and serum chemistry profiles ([2]; 450 ppm in diet, in words): none of the measured parameters are affected by drug treatment | TGI [3]: 3.46E−6 | GI50 ([3]; Homo sapiens): 1.83 µM | CC50 [3, 9]: 6.54 µM | Percent Growth ([3]; Log10 Concentration −4.0): −100% | Percent Growth ([3]; Log10 Concentration −5.0): −83% | Percent Growth ([3]; Log10 Concentration −6.0): 97% | Percent Growth ([3]; Log10 Concentration −7.0): 98% | Percent Growth ([3]; Log10 Concentration −8.0): 87% | TGI [4]: 3.80E−6 | GI50 ([4]; Homo sapiens): 1.58 µM | CC50 [4, 9]: 9.14 µM | Percent Growth ([4]; Log10 Concentration −4.0): −68% | Percent Growth ([4]; Log10 Concentration −5.0): −55% | Percent Growth ([4]; Log10 Concentration −6.0): 76% | Percent Growth ([4]; Log10 Concentration −7.0): 84% | Percent Growth ([4]; Log10 Concentration −8.0): 93% | TGI [5]: 4.32E−6 | GI50 ([5]; Homo sapiens): 1.62 µM | CC50 [5, 9]: 13.9 µM | Percent Growth ([5]; Log10 Concentration −4.0): −93% | Percent Growth ([5]; Log10 Concentration −5.0): −43% | Percent Growth ([5]; Log10 Concentration −6.0): 75% | Percent Growth ([5]; Log10 Concentration −7.0): 74% | Percent Growth ([5]; Log10 Concentration −8.0): 80% | TGI [6]: 2.93E−6 | GI50 ([6]; Homo sapiens): 1.52 µM | LC50 (50% lethal concentration) ([6]; Homo sapiens): 5.64 µM | Percent Growth ([6]; Log10 Concentration −4.0): −92% | Percent Growth ([6]; Log10 Concentration −5.0): −94% | Percent Growth ([6]; Log10 Concentration −6.0): 82% | Percent Growth ([6]; Log10 Concentration −7.0): 87% | Percent Growth ([6]; Log10 Concentration −8.0): 95%
